From PubChem BioAssay AID1963427 (Molecular Pharmacology Branch, DTP, NCI, 2024)
Values belong to the compound of their own block, whether it stands above or below them.

Tested on: 317291-083-R-J1-PDC complex spheroid growth
Test: Anticancer human tumor 317291-083-R-J1-PDC patient-derived soft tissue sarcoma cell line growth inhibition [Asc]
Conditions: for IC50: curve of first compound; for viability, T/C: stronger effect = lower value
Outline: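 Tumor cells were grown as complex spheroids with human endothelial cells (HUVEC) and human mesenchymal stem cells as stroma. Agents were tested alone and in combination, in half-log steps down from the clinical Cmax, or from 10 microM where Cmax was unknown.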

[1] = second compound 0.00316 µM, first compound 0.0316 µM
[2] = second compound 0.00316 µM, first compound 0.1 µM
[3] = second compound 0.00316 µM, first compound 0.316 µM
[4] = second compound 0.00316 µM, first compound 1 µM
[5] = second compound 0.00316 µM, first compound 3.16 µM
[6] = second compound 0.00316 µM, first compound 10 µM
[7] = second compound 0.01 µM, first compound 0.0316 µM
[8] = second compound 0.01 µM, first compound 0.1 µM
[9] = second compound 0.01 µM, first compound 0.316 µM
[10] = second compound 0.01 µM, first compound 1 µM
[11] = second compound 0.01 µM, first compound 3.16 µM
[12] = second compound 0.01 µM, first compound 10 µM
[13] = second compound 0.0316 µM, first compound 0.0316 µM
[14] = second compound 0.0316 µM, first compound 0.1 µM
[15] = second compound 0.0316 µM, first compound 0.316 µM
[16] = second compound 0.0316 µM, first compound 1 µM
[17] = second compound 0.0316 µM, first compound 3.16 µM
[18] = second compound 0.0316 µM, first compound 10 µM
[19] = second compound 0.1 µM, first compound 0.0316 µM
[20] = second compound 0.1 µM, first compound 0.1 µM
[21] = second compound 0.1 µM, first compound 0.316 µM
[22] = second compound 0.1 µM, first compound 1 µM
[23] = second compound 0.1 µM, first compound 3.16 µM
[24] = second compound 0.1 µM, first compound 10 µM
[25] = second compound 0.316 µM, first compound 0.0316 µM
[26] = second compound 0.316 µM, first compound 0.1 µM
[27] = second compound 0.316 µM, first compound 0.316 µM
[28] = second compound 0.316 µM, first compound 1 µM
[29] = second compound 0.316 µM, first compound 3.16 µM
[30] = second compound 0.316 µM, first compound 10 µM
[31] = second compound 1 µM, first compound 0.0316 µM
[32] = second compound 1 µM, first compound 0.1 µM
[33] = second compound 1 µM, first compound 0.316 µM
[34] = second compound 1 µM, first compound 1 µM
[35] = second compound 1 µM, first compound 3.16 µM
[36] = second compound 1 µM, first compound 10 µM
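Note: compound exposure lasted seven days after spheroids formed for three days.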
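Throughout, for viability, T/C: 100% = DMSO vehicle control wells.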

IC50 (second compound 0.00316 µM): 6740 nM
IC50 (second compound 0.01 µM): 8010 nM
IC50 (second compound 0.0316 µM): 4120 nM
IC50 (second compound 0.1 µM): 3610 nM
IC50 (second compound 0.316 µM): < 31.6 nM
IC50 (second compound 1 µM): < 31.6 nM
SMILES: C#Cc1c(F)ccc2cc(O)cc(-c3ncc4c(N5CC6CCC(C5)N6)nc(OCC56CCCN5CC(F)C6)nc4c3F)c12 (centres undefined) + CNC(C)C(=O)NC1CN(S(=O)(=O)c2cccc(S(=O)(=O)N3CCC4CCC(C(=O)NC(c5ccccc5)c5ccccc5)N4C(=O)C(NC(=O)C(C)NC)C3)c2)CCC2CCC(C(=O)NC(c3ccccc3)c3ccccc3)N2C1=O
viability, T/C [1]: 76.3%
viability, T/C [2]: 75.7%
viability, T/C [3]: 72.3%
viability, T/C [4]: 84.3%
viability, T/C [5]: 87%
viability, T/C [6]: 34.8%
viability, T/C [7]: 84.2%
viability, T/C [8]: 71.6%
viability, T/C [9]: 57.8%
viability, T/C [10]: 81.4%
viability, T/C [11]: 76%
viability, T/C [12]: 44.3%
viability, T/C [13]: 67.5%
viability, T/C [14]: 66.6%
viability, T/C [15]: 59.3%
viability, T/C [16]: 63.9%
viability, T/C [17]: 58.1%
viability, T/C [18]: 23.5%
viability, T/C [19]: 54.9%
viability, T/C [20]: 55%
viability, T/C [21]: 53.3%
viability, T/C [22]: 50.8%
viability, T/C [23]: 59%
viability, T/C [24]: 15.1%
viability, T/C [25]: 42.9%
viability, T/C [26]: 46.2%
viability, T/C [27]: 44.3%
viability, T/C [28]: 31.9%
viability, T/C [29]: 43.6%
viability, T/C [30]: 10.6%
viability, T/C [31]: 31.1%
viability, T/C [32]: 29%
viability, T/C [33]: 29.4%
viability, T/C [34]: 24.4%
viability, T/C [35]: 26.2%
viability, T/C [36]: 8.59%

IC50 (second compound 0.00316 µM): 948 nM
IC50 (second compound 0.01 µM): 1030 nM
IC50 (second compound 0.0316 µM): 559 nM
IC50 (second compound 0.1 µM): 71 nM
IC50 (second compound 0.316 µM): < 31.6 nM
IC50 (second compound 1 µM): < 31.6 nM
SMILES: C=C(F)C(=O)N1CCN(c2nc(OCC3CCCN3C)nc3c2CCN(c2cccc4cccc(Cl)c24)C3)CC1CC#N (centres undefined) + CNC(C)C(=O)NC1CN(S(=O)(=O)c2cccc(S(=O)(=O)N3CCC4CCC(C(=O)NC(c5ccccc5)c5ccccc5)N4C(=O)C(NC(=O)C(C)NC)C3)c2)CCC2CCC(C(=O)NC(c3ccccc3)c3ccccc3)N2C1=O
viability, T/C [1]: 90.9%
viability, T/C [2]: 69.3%
viability, T/C [3]: 67%
viability, T/C [4]: 54.3%
viability, T/C [5]: 25%
viability, T/C [6]: 0.13%
viability, T/C [7]: 66.7%
viability, T/C [8]: 61.8%
viability, T/C [9]: 68.5%
viability, T/C [10]: 50.4%
viability, T/C [11]: 9.6%
viability, T/C [12]: 0.1%
viability, T/C [13]: 62%
viability, T/C [14]: 54.2%
viability, T/C [15]: 46.8%
viability, T/C [16]: 46.6%
viability, T/C [17]: 8.82%
viability, T/C [18]: 0.1%
viability, T/C [19]: 59.1%
viability, T/C [20]: 39.9%
viability, T/C [21]: 38.5%
viability, T/C [22]: 38.2%
viability, T/C [23]: 11.7%
viability, T/C [24]: 0.1%
viability, T/C [25]: 38.1%
viability, T/C [26]: 29.4%
viability, T/C [27]: 35%
viability, T/C [28]: 29.3%
viability, T/C [29]: 13.1%
viability, T/C [30]: 0.44%
viability, T/C [31]: 37.9%
viability, T/C [32]: 32.2%
viability, T/C [33]: 32%
viability, T/C [34]: 19.4%
viability, T/C [35]: 9.16%
viability, T/C [36]: 0.2%
